# Assay results as given in US8916702B2 (priority 2012, dated 2014).
# System: HCV pseudoparticles (genotype 1a HCV E1 and E2 envelope, H77C isolate)
# Assay: microbe, parasite or virus in culture
# Format: cell-based
# Settings: Hepatitis C virus, Huh-7, 48 h, HCV pseudoparticle infection of Huh7 cells, luciferase 2 days after infection; average of duplicates
row,SMILES,EC50
1,COC(=O)[C@H](CCNC(=O)C(=O)N(C)c1ccccc1)NC(=O)c1ccc(Nc2nc(NC3(c4ccc(Cl)cc4)CC3)nc(OCC(F)(F)F)n2)cc1 [Compound 1235],0.53 nM

# Same assay, conditions: Hepatitis C virus, Huh-7, 48 h, HCV pseudoparticles (genotype 1a, H77C) in Huh7 cells; average of duplicate; luciferase 2 days after infection
row,SMILES,EC50
1,N#Cc1ccc(-c2ccc(NC(=O)C(=O)NC/C(=N/C(=O)c3ccc(Nc4nc(NC5(c6ccc(Cl)cc6)CC5)nc(OCC(F)(F)F)n4)cc3)C(=O)O)cc2)cc1 [Compound 3170],0.63 nM
2,COC(=O)[C@H](CCNC(=O)C(=O)Nc1ccc(N2CC(C)OC(C)C2)cc1)NC(=O)c1ccc(Nc2nc(NC3(c4ccc(Cl)cc4)CC3)nc(OCC(F)(F)F)n2)cc1 (stereo partly shown) [Compound 3121],3.39 nM
3,COC(=O)[C@H](CCNC(=O)C(=O)Nc1ccc(C)cc1)NC(=O)c1ccc(Nc2nc(NC3(c4ccc(Cl)cc4)CC3)nc(OCC(F)(F)F)n2)cc1 [Compound 3114],0.084 nM
4,O=C(NCC(O)CNC(=O)c1ccc(Nc2nc(NC3(c4ccc(Cl)cc4)CC3)nc(OCC(F)(F)F)n2)cc1)C(=O)Nc1cc(F)cc(F)c1 (stereo not shown) [Compound 3461],0.027 nM
5,CONC(=O)C(=O)NCC(C)(C)CNC(=O)c1ccc(Nc2nc(NC3(c4ccc(Cl)cc4)CC3)nc(OCC(F)(F)F)n2)cc1 [Compound 3002],0.044 nM

# Same assay, conditions: Hepatitis C virus, Huh-7, 48 h, HCV pseudoparticles, Huh7 cells, luciferase 2 days after infection; average of duplicates
row,SMILES,EC50
1,Cc1ccc(NC(=O)C(=O)NCC(C)(C)CNC(=O)c2ccc(Nc3nc(NC4(c5ccc(Cl)cc5)CC4)nc(OCC(F)(F)F)n3)cc2F)c(Cl)c1 [Compound 3664],0.038 nM

# Same assay, conditions: Hepatitis C virus, Huh-7, 48 h, read-out: Activity (EC50 class), HCV pseudoparticle infection of Huh7 cells, luciferase 2 days after infection; EC50 expressed as class A/B
row,SMILES,EC50
1,COC(=O)[C@H](CCNC(=O)C(=O)NCc1cccc(F)c1F)NC(=O)c1ccc(Nc2nc(NC3(c4ccc(Cl)cc4)CC3)nc(OCC(F)(F)F)n2)cc1 [Compound 1160],0.01 to 10 nM
2,O=C(NCC1CCc2ccccc21)C(=O)NC[C@H](NC(=O)c1ccc(Nc2nc(NC3(c4ccc(Cl)cc4)CC3)nc(OCC(F)(F)F)n2)cc1)C(=O)O (stereo partly shown) [Compound 1414],0.01 to 10 nM
3,O=C(NCCc1ccccn1)C(=O)NCC[C@H](NC(=O)c1ccc(Nc2nc(NC3(c4ccc(Cl)cc4)CC3)nc(OCC(F)(F)F)n2)cc1)C(=O)O [Compound 1326],0.01 to 10 nM
4,COC(=O)[C@H](CNC(=O)C(=O)Nc1cccnc1OC)NC(=O)c1ccc(Nc2nc(NC3(c4ccc(Cl)cc4)CC3)nc(OCC(F)(F)F)n2)cc1 [Compound 1240],0.01 to 10 nM
5,COC(=O)[C@H](CCNC(=O)C(=O)N(C)c1ccccc1)NC(=O)c1ccc(Nc2nc(NC3(c4ccc(Cl)cc4)CC3)nc(OCC(F)(F)F)n2)cc1 [Compound 1235],0.01 to 10 nM
6,COC(=O)C(CNC(=O)C(=O)NC1CCCC(NC(=O)OC(C)(C)C)C1)NC(=O)c1ccc(Nc2nc(NC3(c4ccc(Cl)cc4)CC3)nc(OCC(F)(F)F)n2)cc1 (stereo not shown) [Compound 1053],0.01 to 10 nM
7,COc1cccc(CCNC(=O)C(=O)NCC[C@H](NC(=O)c2ccc(Nc3nc(NC4(c5ccc(Cl)cc5)CC4)nc(OCC(F)(F)F)n3)cc2)C(=O)O)c1 [Compound 1330],0.01 to 10 nM
8,Cn1nccc1NC(=O)C(=O)NC[C@H](NC(=O)c1ccc(Nc2nc(NC3(c4ccc(Cl)cc4)CC3)nc(OCC(F)(F)F)n2)cc1)C(=O)O [Compound 1368],0.01 to 10 nM
9,COc1ccc(CCNC(=O)C(=O)NCC[C@H](NC(=O)c2ccc(Nc3nc(NC4(c5ccc(Cl)cc5)CC4)nc(OCC(F)(F)F)n3)cc2)C(=O)O)cc1 [Compound 1331],0.01 to 10 nM
10,COC(=O)[C@@H](CCNC(=O)C(=O)NCC1(COc2ccccc2)CC1)NC(=O)c1ccc(Nc2nc(NC3(c4ccc(Cl)cc4)CC3)nc(OCC(F)(F)F)n2)cc1 [Compound 1387],0.01 to 10 nM
11,COC(=O)[C@H](CCNC(=O)C(=O)NC1CCC(C(C)(C)C)CC1)NC(=O)c1ccc(Nc2nc(NC3(c4ccc(Cl)cc4)CC3)nc(OCC(F)(F)F)n2)cc1 (stereo partly shown) [Compound 1108],0.01 to 10 nM
12,O=C(NCCc1c[nH]cn1)C(=O)NC[C@H](NC(=O)c1ccc(Nc2nc(NC3(c4ccc(Cl)cc4)CC3)nc(OCC(F)(F)F)n2)cc1)C(=O)O [Compound 1407],0.01 to 10 nM
13,COC(=O)[C@H](CCNC(=O)C(=O)Nc1cccc(O)c1)NC(=O)c1ccc(Nc2nc(NC3(c4ccc(Cl)cc4)CC3)nc(OCC(F)(F)F)n2)cc1 [Compound 1521],0.01 to 10 nM
14,Cc1cccc(C2CC2CNC(=O)C(=O)NCC[C@H](NC(=O)c2ccc(Nc3nc(NC4(c5ccc(Cl)cc5)CC4)nc(OCC(F)(F)F)n3)cc2)C(=O)O)c1 (stereo partly shown) [Compound 1434],0.01 to 10 nM
15,CC1(C)C(CNC(=O)C(=O)NCC[C@@H](NC(=O)c2ccc(Nc3nc(NC4(c5ccc(Cl)cc5)CC4)nc(OCC(F)(F)F)n3)cc2)C(=O)O)C1(C)C [Compound 1449],0.01 to 10 nM
16,CC1CCCCC1NC(=O)C(=O)NC[C@H](NC(=O)c1ccc(Nc2nc(NC3(c4ccc(Cl)cc4)CC3)nc(OCC(F)(F)F)n2)cc1)C(=O)O (stereo partly shown) [Compound 1089],0.01 to 10 nM
17,COC(=O)[C@H](CCNC(=O)C(=O)NC1CCCCC1O)NC(=O)c1ccc(Nc2nc(NC3(c4ccc(Cl)cc4)CC3)nc(OCC(F)(F)F)n2)cc1 (stereo partly shown) [Compound 1098],0.01 to 10 nM
18,COC(=O)[C@H](CCNC(=O)C(=O)Nc1cccnc1)NC(=O)c1ccc(Nc2nc(NC3(c4ccc(Cl)cc4)CC3)nc(OCC(F)(F)F)n2)cc1 [Compound 1238],0.01 to 10 nM
19,O=C(NCCn1cccn1)C(=O)NC[C@H](NC(=O)c1ccc(Nc2nc(NC3(c4ccc(Cl)cc4)CC3)nc(OCC(F)(F)F)n2)cc1)C(=O)O [Compound 1411],0.01 to 10 nM
20,COC(=O)[C@H](CNC(=O)C(=O)N[C@H]1C[C@H]2C3C2[C@]31C)NC(=O)c1ccc(Nc2nc(NC3(c4ccc(Cl)cc4)CC3)nc(OCC(F)(F)F)n2)cc1 (stereo partly shown) [Compound 1054],0.01 to 10 nM
21,COC(=O)[C@H](CNC(=O)C(=O)NCCc1cnn(C)c1)NC(=O)c1ccc(Nc2nc(NC3(c4ccc(Cl)cc4)CC3)nc(OCC(F)(F)F)n2)cc1 [Compound 1302],0.01 to 10 nM
22,O=C(NC[C@H](NC(=O)c1ccc(Nc2nc(NC3(c4ccc(Cl)cc4)CC3)nc(OCC(F)(F)F)n2)cc1)C(=O)O)C(=O)NC1CCCC1 [Compound 1037],0.01 to 10 nM
23,COC(=O)[C@@H](CCNC(=O)C(=O)NCC1(NC(=O)OC(C)(C)C)CC1)NC(=O)c1ccc(Nc2nc(NC3(c4ccc(Cl)cc4)CC3)nc(OCC(F)(F)F)n2)cc1 [Compound 1381],0.01 to 10 nM

# Same assay, conditions: Hepatitis C virus, Huh-7, 48 h, read-out: Activity (EC50 class), HCV pseudoparticles, Huh7 cells, luciferase 2 days after infection; average of duplicates
row,SMILES,EC50
1,Cc1ccc(NC(=O)C(=O)NCC(C)(C)CNC(=O)c2ccc(Nc3nc(NC4(c5ccc(Cl)cc5)CC4)nc(OCC(F)(F)F)n3)cc2F)c(Cl)c1 [Compound 3664],0.01 to 10 nM
2,C=Cc1cccc(NC(=O)C(=O)NC[C@H](NC(=O)c2ccc(Nc3nc(NC4(c5ccc(Cl)cc5)CC4)nc(OCC(F)(F)F)n3)cc2)C(=O)OC)c1 [Compound 3690],0.01 to 10 nM
3,CC(C)(CNC(=O)C(=O)Nc1nc2ccc(S(N)(=O)=O)cc2s1)CNC(=O)c1ccc(Nc2nc(NC3(c4ccc(Cl)cc4)CC3)nc(OCC(F)(F)F)n2)cc1F [Compound 3678],0.01 to 10 nM
4,COC(=O)[C@H](CNC(=O)C(=O)Nc1cccc(S(=O)(=O)C(F)(F)F)c1)NC(=O)c1ccc(Nc2nc(NC3(c4ccc(Cl)cc4)CC3)nc(OCC(F)(F)F)n2)cc1 [Compound 3710],0.01 to 10 nM
5,Cc1cc(NC(=O)C(=O)NCC(C)(C)CNC(=O)c2ccc(Nc3nc(NC4(c5ccc(Cl)cc5)CC4)nc(OCC(F)(F)F)n3)cc2)ccc1Cl [Compound 3798],0.01 to 10 nM

# Same assay, conditions: Hepatitis C virus, Huh-7, read-out: Activity (EC50 class), HCV pseudoparticles (genotype 1a, H77C) in Huh7 cells; EC50 expressed as class A/B
row,SMILES,EC50
1,Cc1ccc(NC(=O)C(=O)NCCCCNC(=O)c2ccc(Nc3nc(NC4(c5ccc(Cl)cc5)CC4)nc(OCC(F)(F)F)n3)cc2)cc1 [Compound 3393],0.01 to 10 nM
2,N#Cc1ccc(-c2ccc(NC(=O)C(=O)NC/C(=N/C(=O)c3ccc(Nc4nc(NC5(c6ccc(Cl)cc6)CC5)nc(OCC(F)(F)F)n4)cc3)C(=O)O)cc2)cc1 [Compound 3170],0.01 to 10 nM
3,Cn1cnnc1-c1ccc(NC(=O)C(=O)NCCC(NC(=O)c2ccc(Nc3nc(NC4(c5ccc(Cl)cc5)CC4)nc(OCC(F)(F)F)n3)cc2)C(=O)O)cc1 (stereo not shown) [Compound 3538],10 to 1000 nM
4,COC(=O)[C@H](CCNC(=O)C(=O)Nc1ccc(N2CC(C)OC(C)C2)cc1)NC(=O)c1ccc(Nc2nc(NC3(c4ccc(Cl)cc4)CC3)nc(OCC(F)(F)F)n2)cc1 (stereo partly shown) [Compound 3121],0.01 to 10 nM
5,COC(=O)[C@H](CCNC(=O)C(=O)Nc1ccc(C)cc1)NC(=O)c1ccc(Nc2nc(NC3(c4ccc(Cl)cc4)CC3)nc(OCC(F)(F)F)n2)cc1 [Compound 3114],0.01 to 10 nM
6,CC(C)(CNC(=O)C(=O)Nc1ccc(/C=C/c2ccccc2)cc1)CNC(=O)c1ccc(Nc2nc(NC3(c4ccc(Cl)cc4)CC3)nc(OCC(F)(F)F)n2)cc1 [Compound 3143],0.01 to 10 nM
7,O=C(NC/C(=N/C(=O)c1ccc(Nc2nc(NC3(c4ccc(Cl)cc4)CC3)nc(OCC(F)(F)F)n2)cc1)C(=O)O)C(=O)Nc1ccc(-n2cncn2)cc1 [Compound 3168],0.01 to 10 nM
8,CN(CCCN(C)C(=O)c1ccc(Nc2nc(NC3(c4ccc(Cl)cc4)CC3)nc(OCC(F)(F)F)n2)cc1)C(=O)C(N)=O [Compound 3411],0.01 to 10 nM
9,CC(CNC(=O)C(=O)Nc1cccc(F)c1)CNC(=O)c1ccc(Nc2nc(NC3(c4ccc(Cl)cc4)CC3)nc(OCC(F)(F)F)n2)cc1 (stereo not shown) [Compound 3348],0.01 to 10 nM
10,COc1ccccc1NC(=O)C(=O)NCC(C)(C)CNC(=O)c1ccc(Nc2nc(NC3(c4ccc(Cl)cc4)CC3)nc(OCC(F)(F)F)n2)cc1 [Compound 3006],0.01 to 10 nM
11,Cc1cc(NC(=O)C(=O)NC(C)(C)CNC(=O)c2ccc(Nc3nc(NC4(c5ccc(Cl)cc5)CC4)nc(OCC(F)(F)F)n3)cc2)no1 [Compound 3422],0.01 to 10 nM
12,CC(C)(CNC(=O)C(=O)Nc1ccc(S(C)(=O)=O)cc1)CNC(=O)c1ccc(Nc2nc(NC3(c4ccc(Cl)cc4)CC3)nc(OCC(F)(F)F)n2)cc1 [Compound 3254],0.01 to 10 nM
13,COc1cccc(-c2ccc(NC(=O)C(=O)NCC(C)(C)CNC(=O)c3ccc(Nc4nc(NC5(c6ccc(Cl)cc6)CC5)nc(OCC(F)(F)F)n4)cc3F)cc2)c1 [Compound 3563],0.01 to 10 nM
14,O=C(Nc1cc(F)cc(F)c1)C(=O)N[C@H](CCNC(=O)c1ccc(Nc2nc(NC3(c4ccc(Cl)cc4)CC3)nc(OCC(F)(F)F)n2)cc1)C(=O)O [Compound 3493],0.01 to 10 nM
15,O=C(NCC(O)CNC(=O)c1ccc(Nc2nc(NC3(c4ccc(Cl)cc4)CC3)nc(OCC(F)(F)F)n2)cc1)C(=O)Nc1cc(F)cc(F)c1 (stereo not shown) [Compound 3461],0.01 to 10 nM
16,CC(C)(CNC(=O)C(=O)Nc1cccc(C(=O)c2ccccc2)c1)CNC(=O)c1ccc(Nc2nc(NC3(c4ccc(Cl)cc4)CC3)nc(OCC(F)(F)F)n2)cc1 [Compound 3078],0.01 to 10 nM
17,CC(C)(CNC(=O)C(=O)NCc1ccccc1Cl)CNC(=O)c1ccc(Nc2nc(NC3(c4ccc(Cl)cc4)CC3)nc(OCC(F)(F)F)n2)cc1 [Compound 3003],0.01 to 10 nM
18,CN(CCCN(C)C(=O)c1ccc(Nc2nc(NC3(c4ccc(Cl)cc4)CC3)nc(OCC(F)(F)F)n2)cc1)C(=O)C(=O)N1CCc2ccccc2C1 [Compound 3433],10 to 1000 nM
19,CONC(=O)C(=O)NCC(C)(C)CNC(=O)c1ccc(Nc2nc(NC3(c4ccc(Cl)cc4)CC3)nc(OCC(F)(F)F)n2)cc1 [Compound 3002],0.01 to 10 nM
20,COC(=O)[C@H](CNC(=O)C(=O)Nc1ccc(-c2ncco2)cc1)NC(=O)c1ccc(Nc2nc(NC3(c4ccc(Cl)cc4)CC3)nc(OCC(F)(F)F)n2)cc1 [Compound 3209],0.01 to 10 nM
